Assay results taken from patent publication EP1096004B1, “Pro-fragrance compounds” (THE PROCTER & GAMBLE COMPANY, priority 1996, dated 1997).

Assay: Pro-Fragrant Hydrolysis Test (hydrolysis half-life by UV/Vis spectroscopy)
Type: physicochemical
Settings: acid hydrolysis at pH 0 (1N HCl), 90/10 dioxane/water, 30°C
Procedure: Hydrolysis half-life is the measurement used to determine the ease with which the pro-fragrance compound undergoes acid hydrolysis and thereby releases its fragrance component(s) upon exposure to acid conditions. […] Preferably, pro-fragrance of the invention has a half-life at pH 2 of less than 60 minutes. For granular detergents, the more reactive pro-fragrances, that is, those with half-life at […] of less than one minute, are most suitable, although those having a half-life of less than 60 minutes at pH 0 are also useful. […]
All measurements are carried out using a Hewlett Packard 8452 A Diode Array Spectrophotometer using quartz 1 cm path length cuvette cells. […] The pH's are measured using an Orion 230 A standardized with pH 4 and pH 7 buffers. […]
Pro-fragrance is weighed out in a 10.00 ml volumetric flask using an analytical balance (Mettler AE 200) Precision is 1/10 mg. […] Hydrolysis time is measured, starting upon addition of the acid. […] The absorbance of the pro-fragrance solution (At) is followed at a regular series of time intervals, and the cuvette is kept in the water-bath at the above-indicated temperature between measurements. […] The wavelength at which the hydrolysis is followed is chosen at the wavelength of the absorbance maximum of the parent aldehyde or ketone.
Reaction half-lifes are determined using conventional procedures. […]

Compound: CC(C)=CCCC(C)=CC(OC/C=C(\C)CCC=C(C)C)OC/C=C(\C)CCC=C(C)C [Example 1, Digeranyl Citral Acetal]
- t 1/2 at 0 pH: less than one
